Results on two molecules are retold here after paper PMC8002023, “3D Pharmacophore-Based Discovery of Novel KV10.1 Inhibitors with Antiproliferative Activity” (Cancers, 2021).

Holding throughout (format): cell-based
The subject of one assay is Colo357 tumour spheroids. Kind of assay: Apoptosis (caspase 3/7 reporter) in tumour spheroids. The following applies: 50 µM, caspase reporter fluorescence over 72 h, 8.9 µM cycloheximide as sensitizer. The procedure: Spheroids were cultured in round bottom ultra-low attachment 96-well plates (Corning) at a density of 5000 cells/well in 2% Matrigel (Corning) and centrifuged at 1000× g for 10 min. Spheroid formation was monitored continuously in the Incucyte system and treatments were added once spheroids were formed. As apoptosis sensitizer, 8.9 µM cycloheximide was added to controls and treated spheroids. Caspase 3/7 green reagent (Sartorius; 1:1000) was used as recommended by the manufacturer. Caspase 3/7 reagent substrate crosses the cell membrane and its cleavage by activated caspase-3/7 results in the release of a DNA dye and fluorescent staining of nuclear DNA.
To test the ability of the compounds to inhibit tumour progression in a more predictive system, we performed experiments on tumour spheroids of the pancreatic cancer cell line Colo357, which grows efficiently in this culture modality. The cells were seeded in the presence of Matrigel (see methods), allowed to form spheroids, and the compounds (50 µM) were added to the growth medium. The control contained the same amount of the vehicle (0.5% DMSO). Apoptosis was monitored by addition of a fluorescent […] activity reporter at the same time as the compounds. Cleavage of the reporter by caspase results in green florescence, and the intensity of the fluorescence was recorded over 72 h.

The target in the next assay is T1, hERG (Homo sapiens, UniProt Q12809).
T1 construct: expressed in transfected cells
T1 sequence (Q12809 whole entry): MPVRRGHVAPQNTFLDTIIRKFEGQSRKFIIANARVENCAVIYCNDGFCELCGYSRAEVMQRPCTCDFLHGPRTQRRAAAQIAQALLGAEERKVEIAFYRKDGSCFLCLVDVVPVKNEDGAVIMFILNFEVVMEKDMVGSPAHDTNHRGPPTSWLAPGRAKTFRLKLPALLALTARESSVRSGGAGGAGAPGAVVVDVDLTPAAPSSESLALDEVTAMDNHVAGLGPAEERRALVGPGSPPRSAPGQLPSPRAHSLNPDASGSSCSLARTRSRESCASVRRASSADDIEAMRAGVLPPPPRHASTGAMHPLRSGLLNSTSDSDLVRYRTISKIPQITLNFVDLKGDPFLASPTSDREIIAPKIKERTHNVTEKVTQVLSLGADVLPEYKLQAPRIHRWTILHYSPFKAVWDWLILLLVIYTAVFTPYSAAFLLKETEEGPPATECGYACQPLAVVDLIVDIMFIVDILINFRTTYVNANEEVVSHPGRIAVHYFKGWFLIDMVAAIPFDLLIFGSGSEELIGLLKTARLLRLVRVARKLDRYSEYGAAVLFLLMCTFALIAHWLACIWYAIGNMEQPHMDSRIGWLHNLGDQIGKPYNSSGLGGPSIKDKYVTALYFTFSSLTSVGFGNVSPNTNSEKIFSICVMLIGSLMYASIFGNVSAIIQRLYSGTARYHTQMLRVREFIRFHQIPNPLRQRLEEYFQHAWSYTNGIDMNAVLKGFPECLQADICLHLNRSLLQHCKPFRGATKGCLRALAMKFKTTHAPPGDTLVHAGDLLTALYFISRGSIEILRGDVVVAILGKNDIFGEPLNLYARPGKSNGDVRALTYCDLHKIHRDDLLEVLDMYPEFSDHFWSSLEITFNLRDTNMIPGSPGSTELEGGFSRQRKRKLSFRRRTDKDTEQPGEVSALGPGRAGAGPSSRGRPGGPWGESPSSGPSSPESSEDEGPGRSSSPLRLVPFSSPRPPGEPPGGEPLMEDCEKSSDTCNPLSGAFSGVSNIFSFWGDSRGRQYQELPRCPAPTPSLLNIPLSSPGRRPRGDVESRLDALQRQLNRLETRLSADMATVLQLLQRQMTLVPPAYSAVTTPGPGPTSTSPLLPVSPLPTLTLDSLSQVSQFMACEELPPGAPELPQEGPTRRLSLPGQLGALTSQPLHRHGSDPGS
Nature of the assay: Whole-cell patch clamp on stably transfected HEK-293 cells, hERG tail current. The following applies: peak tail current at −40 mV after +20 mV. The procedure:
Whole-cell patch clamp experiments were performed on stably transfected HEK-293 cells. The cells were grown on fibronectin-coated glass coverslips in DMEM supplemented with 10% FCS and 300 µg/mL Zeocin. Experiments were performed at room temperature under continuous perfusion. The extracellular solution contained (mM) 160 NaCl, 2.5 KCl, 2 CaCl2, 1 MgCl2, 10 Hepes/NaOH, pH 7.4, 8 glucose. For the experiments determining conductance–voltage relationships, tail currents were made visible by substituting 60 mM NaCl by KCl ([…], 100 NaCl). Pipettes were pulled from #1 glass capillaries (WPI) to resistances of 1–3 MΩ when loaded with the intracellular solution (100 KCl, 45 N-methyl-D-glucamine, 10 1,2-bis(o-aminophenoxy)ethane-N,N,N′,N′-tetraacetic acid (BAPTA), 10 Hepes pH 7.35). Data acquisition was performed using a EPC10 Plus amplifier (HEKA Elektronik) and Patch Master software. Drug application was performed using an 8-channel fast solution exchanger (ALA). All compounds were dissolved in DMSO to a final concentration of 10 mM. 0.5% DMSO in extracellular solution served as control. KV10.1 currents were elicited by 500 ms depolarisations to +40 mV under continuous perfusion with the compound-containing or control solution. hERG current amplitudes were measured as the peak tail current during a 4 s repolarization to −40 mV after a depolarising pulse to +20 mV lasting for 2 s.
(In general: In patch-clamp work, channel activity is measured electrically.)

The target of a further assay is T2, KV10.1 (Homo sapiens, UniProt O95259).
T2 construct: expressed in transfected cells
T2 sequence (O95259 1-962 isoform O95259-2): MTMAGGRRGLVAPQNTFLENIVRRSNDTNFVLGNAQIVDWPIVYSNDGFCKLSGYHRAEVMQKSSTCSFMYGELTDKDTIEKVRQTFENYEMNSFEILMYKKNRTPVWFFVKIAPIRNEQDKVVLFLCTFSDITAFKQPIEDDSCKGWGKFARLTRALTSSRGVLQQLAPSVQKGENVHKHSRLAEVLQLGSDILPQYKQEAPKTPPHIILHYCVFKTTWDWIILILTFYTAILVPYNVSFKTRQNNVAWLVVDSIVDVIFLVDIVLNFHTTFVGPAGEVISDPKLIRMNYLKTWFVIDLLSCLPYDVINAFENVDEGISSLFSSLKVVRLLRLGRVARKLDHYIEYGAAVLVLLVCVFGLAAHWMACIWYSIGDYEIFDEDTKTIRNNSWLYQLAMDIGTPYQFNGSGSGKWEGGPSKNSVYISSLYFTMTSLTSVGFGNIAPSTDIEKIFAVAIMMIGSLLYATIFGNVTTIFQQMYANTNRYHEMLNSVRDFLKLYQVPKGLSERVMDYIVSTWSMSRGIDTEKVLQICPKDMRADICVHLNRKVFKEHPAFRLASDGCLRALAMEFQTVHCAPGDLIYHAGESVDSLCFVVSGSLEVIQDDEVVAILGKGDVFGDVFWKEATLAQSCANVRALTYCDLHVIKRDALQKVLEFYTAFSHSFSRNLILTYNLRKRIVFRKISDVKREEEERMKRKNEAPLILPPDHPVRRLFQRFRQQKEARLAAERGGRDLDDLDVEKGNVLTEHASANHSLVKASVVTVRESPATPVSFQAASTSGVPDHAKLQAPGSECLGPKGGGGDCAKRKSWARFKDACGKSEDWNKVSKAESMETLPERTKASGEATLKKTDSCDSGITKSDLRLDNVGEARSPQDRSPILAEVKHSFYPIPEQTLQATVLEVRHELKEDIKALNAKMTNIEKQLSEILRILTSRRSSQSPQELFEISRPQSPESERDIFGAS
Nature of the assay: Whole-cell patch clamp on HEK-293 cells stably expressing KV10.1. The following applies: HEK293; 10 μM; mean ± standard error (or range).

For `CN(C)CC(O)COc1ccc(Nc2ccc(C(F)(F)F)cc2[N+](=O)[O-])cc1` (centres unmarked) [ZVS-08], the “apoptosis induction in tumour spheroids” value in the assay on Colo357 tumour spheroids was “induced apoptosis efficiently starting very early”. Further, the IC50 – broadly, the concentration at which inhibition is half-maximal – against hERG was 194 nM.
For `O=[N+]([O-])c1cc(C(F)(F)F)ccc1Nc1ccc(OCC(O)CN2CCOCC2)cc1` (centres unmarked) [Compound 8], the “apoptosis induction in tumour spheroids” value in the assay with Colo357 tumour spheroids was “apoptosis statistically significant over the control starting only after 24 h”. For the same molecule, testing at 10 µM against KV10.1 gave an inhibition of 81.2 ± 4.97%. At hERG, this molecule came in with an IC50 of 156 nM.
